Experimental findings from ChEMBL document CHEMBL1158966, “Chemical characterization and pharmacological activity of nazlinin, a novel indole alkaloid from Nitraria schoberi” (1991) are described below.

Experiment [1] is filed under the species Oryctolagus cuniculus. Nature of the experiment: (§1) Contractile activity in rabbit celiac artery. Format: functional.
Experiment [2] is described as follows: as §1. Format: functional, Oryctolagus cuniculus.
The species named for experiment [3] is Oryctolagus cuniculus. The experiment in a line: Vasorelaxant activity against PGF2-alpha-induced contraction in endothelium-intact rabbit aortic rings in presence of atropine sulfate. Format: functional, tissue-based. Conditions: Aorta.
For experiment [4], the system named is Aorta. The experiment in a line: Contractile activity in endothelium-intact rabbit aortic rings at >40 nmol to 400 nmol. Format: functional, tissue-based. Conditions: Oryctolagus cuniculus.
For experiment [5], the species on record is Oryctolagus cuniculus. The experiment in a line: Vasorelaxant activity against PGF2-alpha-induced contraction in endothelium-intact rabbit aortic rings in presence of ketanserin tartrate. Format: functional, tissue-based. Conditions: Aorta.
Experiment [6] is filed under the species Oryctolagus cuniculus. The experiment in a line: Vasorelaxant activity against PGF2-alpha-induced contraction in endothelium-intact rabbit aortic rings in presence of propranolol hydrochloride. The experiment is classed as functional, tissue-based. Conditions: Aorta.
The nature of experiment [7]: Contractile activity in rabbit celiac arteries relative to control. Conditions: Oryctolagus cuniculus, Celiac artery. Format: functional.
Experiment [8] is filed under the species Oryctolagus cuniculus. Nature of the experiment: Vasorelaxant activity against PGF2-alpha-induced contraction in endothelium-intact rabbit aortic rings in presence of phentolamine. Format: functional, tissue-based. Conditions: Aorta.
The species named for experiment [9] is Oryctolagus cuniculus. Nature of the experiment: Vasorelaxant activity against PGF2-alpha-induced contraction in endothelium-intact rabbit aortic rings up to 40 nmol. The experiment is classed as functional, tissue-based. Conditions: Aorta.
Experiment [10] is described as follows: Contractile activity in rabbit mesenteric arteries relative to control. Format: functional. Conditions: Oryctolagus cuniculus, Mesenteric artery.
The species named for experiment [11] is Oryctolagus cuniculus. The experiment in a line: Vasorelaxant activity against PGF2-alpha-induced contraction in endothelium-intact rabbit aortic rings in presence of indomethacin. Conditions: Aorta. The experiment is classed as functional, tissue-based.
Experiment [12] is filed under the species Oryctolagus cuniculus. Nature of the experiment: (§2) Contractile activity in rabbit mesenteric artery. Format: functional.
Experiment [13] is described as follows: as §2. Format: functional, Oryctolagus cuniculus.
Experiment [14] relates to Aorta. The experiment in a line: Contractile activity in endothelium-intact rabbit aortic rings in presence of ketanserin tartrate. Format: functional, tissue-based. Conditions: Oryctolagus cuniculus.
The species named for experiment [15] is Oryctolagus cuniculus. Nature of the experiment: Vasorelaxant activity against PGF2-alpha-induced contraction in endothelium-denuded rabbit aortic rings at 0.04 to 400 nmol. Conditions: Aorta. Format: functional, tissue-based.
For experiment [16], the species on record is Oryctolagus cuniculus. Nature of the experiment: Vasorelaxant activity against PGF2-alpha-induced contraction in endothelium-intact rabbit aortic rings in presence of prazosin. Format: functional, tissue-based. Conditions: Aorta.

Activity calls are given as the source filed them. The rule behind the calls is not given here.

Usually Emax stands for the size of the effect at its maximum, as opposed to the concentration needed. As to `NC1CCCCNCCc2c1[nH]c1ccccc21` (stereo not given) [NAZLININ], the Activity entry in experiment [1] and in [12] was “Dose-dependent effect” each time. The ED50 is listed as 115 nmol in experiment [2] and 70 nmol in experiment [13]. The outcome in [3], in experiment [4], in experiment [5], in [6], in [8] and in experiment [9] was Active. In addition, the outcome in experiment [11] and in experiment [16] was Active. For the same molecule, the Emax in experiment [7] was found to be 71%; in experiment [10], 83%. Besides, the result in experiment [14] and in experiment [15] was inactive.
Turning to `NCCc1c[nH]c2ccc(O)cc12` [SEROTONIN], the Activity entry in [1] and in experiment [12] was “Dose-dependent effect” in each case. Moreover, the ED50 in [2] stood at 0.156 nmol; in experiment [13], 0.126 nmol. For the same molecule, the result in experiment [4] and in experiment [9] was Active. The Emax came out at 110% in [7] and 108% in experiment [10]. Also, in [15], the outcome was inactive.
